Where “and” joins values, the source holds several entries; their conditions need not be identical. Equal values may be shown once.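 These data come from cells grown in 96-well plates and exposed to compound for 48 hours at five concentrations. GI50 is the concentration that inhibits growth by half. The concentration for full growth arrest is given as TGI.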
Experiments:
Assay in all cases: DTP human tumour cell line panel, 48 h
A498 renal = system: A498 renal
CCRF-CEM leukemia = system: CCRF-CEM leukemia
ACHN renal = system: ACHN renal
MDA-MB-435 = system: MDA-MB-435
OVCAR-4 ovarian = system: OVCAR-4 ovarian
K-562 leukemia = system: K-562 leukemia
IGROV1 ovarian = system: IGROV1 ovarian
NCI-H226 lung = system: NCI-H226 lung
HOP-92 NSCLC = system: HOP-92 NSCLC
SN12C renal = system: SN12C renal

| Structure (SMILES) | GI50 (A498 renal) | TGI (A498 renal) | GI50 (CCRF-CEM leukemia) | TGI (CCRF-CEM leukemia) | GI50 (ACHN renal) [µM] | TGI (ACHN renal) | GI50 (MDA-MB-435) [µM] | TGI (MDA-MB-435) | GI50 (OVCAR-4 ovarian) | TGI (OVCAR-4 ovarian) | GI50 (K-562 leukemia) [µM] | TGI (K-562 leukemia) [µM] | GI50 (IGROV1 ovarian) | TGI (IGROV1 ovarian) | GI50 (NCI-H226 lung) | TGI (NCI-H226 lung) | GI50 (HOP-92 NSCLC) | TGI (HOP-92 NSCLC) | GI50 (SN12C renal) | TGI (SN12C renal) |
| --- | --- | --- | --- | --- | --- | --- | --- | --- | --- | --- | --- | --- | --- | --- | --- | --- | --- | --- | --- | --- |
| CCCCCCOc1ccc(/C=N/Nc2cc(C)nc3ccc(Br)cc23)cc1 | 1.58 µM | 3.09 µM | 1.71 µM | 3.97 µM | 1.74 | 3.11 µM | 1.73 | 3.16 µM | 1.81 µM | 3.46 µM | 1.07 | 2.96 | 1.75 µM | 3.45 µM | 1.6 µM | 3.16 µM | 1.45 µM | 2.97 µM | 1.69 µM | 3.17 µM |
| CCOc1ccc(-n2cc(-c3ccc(N(C)C)cc3)[n+]3c2CCCCC3)cc1 | 1.22 µM | 8.44 µM | 1.08 µM | > 100 µM | 2.63 | > 100 µM | 0.217 | 14.4 µM | 0.103 µM | > 100 µM | 0.128 | > 100 | 0.923 µM | > 100 µM | 1.56 µM | > 100 µM | 1.14 µM | 6.43 µM | 0.891 µM | 19 µM |
| COc1ccc(-c2nn(C(=O)c3cc(OC)c(OC)c(OC)c3)c3cc(N)ccc23)cc1 | < 0.01 µM | < 0.0171 µM | 0.0249 µM | 14.3 µM | < 0.0151 | 2.67 µM | < 0.01 |  | < 0.0195 µM | 12.9 µM | < 0.01 | 10.5 | 0.0207 µM | 15.9 µM | 0.15 µM | 6.71 µM | 1.86 µM | 25.8 µM | < 0.0162 µM | 10.8 µM |
| COC(=O)c1cccc(COc2ccc([N+](=O)[O-])cc2Cl)c1 |  | > 100 µM |  | > 100 µM |  | > 100 µM |  | > 100 µM |  | > 100 µM |  | > 100 |  | > 100 µM |  | > 100 µM |  | > 100 µM |  | > 100 µM |
| N[C@@H](Cc1ccc(N(CCCl)CCCl)cc1)C(=O)O | 33.2 µM and 49.3 µM | > 100 µM and > 78.2 µM and 177 µM | 2.47 µM and 1.96 µM | 78.9 µM and > 96.4 µM and 66.8 µM | 3.99 | 21.5 µM and 78.2 µM | 63.4 | > 100 µM and 105 µM | 32.1 µM and 18.6 µM | > 100 µM and 48.2 µM and 84.3 µM | 37.8 | 190 | 15.2 µM and 20.3 µM and 48.6 µM | 74.3 µM and 57.1 µM and 139 µM | 44.6 µM and 26.6 µM | > 100 µM and 52.7 µM and 156 µM | 11.9 µM and 15 µM | 52.3 µM and 42 µM and 103 µM | 3.73 µM and 9.39 µM | > 100 µM and > 68.3 µM and 161 µM |
| NC(CSC(c1ccccc1)(c1ccccc1)c1ccc(Br)cc1)C(=O)O (stereo not drawn) | 0.259 µM | 32.5 µM | 0.0941 µM |  | 11.6 | > 100 µM | 0.0402 | 0.199 µM | 19.9 µM | > 100 µM | 0.311 | 20.6 | 0.293 µM | 40.8 µM | 11.3 µM | 33.4 µM | 2.47 µM | 39.6 µM | 0.3 µM | 49.8 µM |
| NC1=C(O)/C(=N/NS(=O)(=O)c2ccccc2)C(c2cccc(Cl)c2)O1 (stereo not drawn) |  | > 100 µM |  | 12 µM |  | > 84.1 µM |  | > 100 µM |  | > 100 µM |  | 27.9 |  | > 100 µM |  | > 90.9 µM |  | 53 µM |  | > 67.2 µM |
| O=c1c(Br)ccc(Br)cc1Br | 14.7 µM | 28.5 µM | 0.317 µM | 1.58 µM | 1.26 | 2.53 µM | 1.85 | 4.38 µM | 2.47 µM | 4.63 µM | 0.527 | 3.64 | 2.4 µM | 5.64 µM | 2.94 µM | 9.7 µM | 1.53 µM | 3.05 µM | 2.11 µM | 4.68 µM |
| O=P1(NCCCl)OCCC(OO)N1CCCl (stereo not drawn) |  | > 93.3 µM |  | > 52.7 µM |  | 33 µM |  | > 100 µM |  | 39.1 µM |  | > 64 |  | > 100 µM |  | > 100 µM |  | 33.4 µM |  | > 100 µM |
| COc1ccc(-n2cc(-c3ccc(F)cc3)[nH]c2=O)cc1OC | > 100 µM | > 100 µM | 18.2 µM | 34.3 µM | > 100 | > 100 µM | > 100 | > 100 µM | > 100 µM | > 100 µM | 7.5 | > 100 | > 100 µM | > 100 µM | > 100 µM | > 100 µM | 79.1 µM | > 100 µM | 58 µM | > 100 µM |
| COc1cc(-c2nc3cc(Cl)c(Cl)cc3[nH]2)ccc1OCC(=O)N=Nc1c(O)[nH]c2ccccc12 | 1.46 µM | 3.37 µM | 0.322 µM | 17.5 µM | 2.11 | 13.8 µM | 0.389 | 1.42 µM | 0.307 µM | 0.921 µM | 0.345 | > 31.7 | 0.313 µM | 1.01 µM | 1.04 µM | 2.67 µM | 0.794 µM | 2.42 µM | 0.506 µM | 1.8 µM |
